Read-outs that look alike come from different tables or passages of the source. Starred links: 1 amine or outer side, 2 acyl side, 3 side chain; linkers in the order of their positions; H or OH if unused. Positions of bridges follow the written chain, without caps; N, C: chain ends. Non-standard residues stand in square brackets, D forms with d. Residues, ends and D or L forms follow the SMILES beside them. Groups on a side chain read outwards from the residue. *: point of attachment. X4 = CN(C)C(=O)Cn1cc(-c2ccc(C[C@H](N[*:1])C(=O)[*:2])cc2)cn1; Phe(3-OCH2COOH) = N[C@@H](Cc1cccc(OCC(=O)O)c1)C(=O)O; Phe(4-COOH) = N[C@@H](Cc1ccc(C(=O)O)cc1)C(=O)O; Piperazinyl(4-CH2COOH) = O=C(O)CN1CCN(*)CC1; Gly(decyl) = CCCCCCCCCC[C@H](N)C(=O)O; X1 = CCCCCCC[C@H](N[*:1])C(=O)[*:2]; NMeCha = CN[C@@H](CC1CCCCC1)C(=O)O; NMeF = CN[C@@H](Cc1ccccc1)C(=O)O; Cha = N[C@@H](CC1CCCCC1)C(=O)O; NMeA = CN[C@@H](C)C(=O)O; CO = O=C([*:1])[*:2]; NEtG = CCNCC(=O)O; Sar = CNCC(=O)O
How the values were obtained:
Myostatin = target: T1, Myostatin (Homo sapiens, UniProt O14793); assay: HepG2 reporter gene assay, Evaluation Procedure (2): 2-concentrations assay, myostatin inhibition; type: cell-based
T1 construct: active myostatin (also called mature myostatin) is a homodimer consisting of two C-terminal growth factor domains; purchased R&D systems 788-G8/CF
T1 sequence (O14793 267-375): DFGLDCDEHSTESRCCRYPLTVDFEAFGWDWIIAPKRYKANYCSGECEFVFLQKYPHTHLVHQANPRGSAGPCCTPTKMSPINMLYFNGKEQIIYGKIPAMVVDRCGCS
Procedure, shortened: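 Myostatin inhibition was measured in a luciferase reporter assay using HepG2 cells transfected with a pGL3 vector containing 12 CAGA repeats upstream of luciferase. After 20 to 24 hours with 10 ng/mL myostatin, cells received One-Glo:PBS (1:1) at 100 µL/well, were shaken for 5 min, and 20 µL/well was moved to 384-well plates and read on an Envision 2104.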

GDF-11 = target: T2, GDF-11 (Homo sapiens, UniProt O95390); assay: HepG2 reporter gene assay, Evaluation Procedure (2): 2-concentrations assay, GDF-11 inhibition; type: cell-based
T2 construct: purchased R&D systems 1958-GD-G8/CF
T2 sequence (O95390 299-407): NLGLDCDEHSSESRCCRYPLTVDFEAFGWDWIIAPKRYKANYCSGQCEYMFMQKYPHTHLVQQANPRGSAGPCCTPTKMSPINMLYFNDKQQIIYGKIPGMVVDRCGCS
Procedure, shortened: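 HepG2 cells carrying the transfected pGL3(CAGA)12-luc reporter, a pGL3 vector with luciferase placed downstream of 12 CAGA repeats, were stimulated with GDF-11 at a final 10 ng/mL together with test peptide. Blank wells received no GDF-11 and no peptide. Plates were incubated 20 to 24 hours at 37°C with 5% CO2. Luminescence from One-Glo substrate was read to calculate percent inhibition.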

[1] = peptide 30nM, Myostatin 10 ng/mL, HepG2, read-out: Myostatin Inhibition 30nM
[2] = peptide 100nM, Myostatin 10 ng/mL, HepG2, read-out: Myostatin Inhibition 100nM
[3] = HepG2, peptide 30nM, GDF-11 10 ng/mL, read-out: GDF11 Inhibition 30nM
[4] = HepG2, peptide 100nM, GDF-11 10 ng/mL, read-out: GDF11 Inhibition 100nM

CCCCCCCCCC[C@@H]1NC(=O)[C@H](CC2CCCCC2)NC(=O)[C@H](CCCNC(=N)N)NC(=O)[C@H](Cc2ccc(C(=O)O)cc2)NC(=O)[C@H](CCCCNC(=O)N2CCN(CC(=O)O)CC2)NC(=O)[C@H]2CCCN2C(=O)[C@H]([C@@H](C)CC)NC(=O)[C@H](CC2CCCCC2)N(C)C(=O)[C@H](Cc2ccc(O)cc2)NC(=O)[C@H](Cc2c[nH]c3ccccc23)NC(=O)[C@@H](CCC(=O)O)NC(=O)[C@H](C)NC(=O)CSC[C@H](C(=O)N2CCN(CC(=O)O)CC2)NC(=O)[C@H](Cc2ccccc2)N(C)C(=O)[C@H](C)N(C)C1=O [Myostatin_99_v247] ({CH2CO}-A[dE]WY[NMeCha]I[dP]K([CO-Piperazinyl(4-CH2COOH)])[Phe(4-COOH)]R[Cha][Gly(decyl)][NMeA][NMeF][dC]-{Piperazinyl(4-CH2COOH)}; thioether N-15)
inhibition at 0.03 µM (Myostatin; [1]): 68%
inhibition at 0.1 µM (Myostatin; [2]): 94%
inhibition at 0.03 µM (GDF-11; [3]): 0%
inhibition at 0.1 µM (GDF-11; [4]): 6%

CCCCCCC[C@@H]1NC(=O)[C@H](CC2CCCCC2)NC(=O)[C@H](CCCNC(=N)N)NC(=O)[C@H](Cc2ccc(C(=O)O)cc2)NC(=O)[C@H](CCCCNC(=O)N2CCN(CC(=O)O)CC2)NC(=O)[C@H]2CCCN2C(=O)[C@H]([C@@H](C)CC)NC(=O)[C@H](CC2CCCCC2)N(C)C(=O)[C@H](Cc2ccc(O)cc2)NC(=O)[C@H](Cc2ccc(-c3cnn(CC(=O)N(C)C)c3)cc2)NC(=O)[C@@H](CCC(=O)O)NC(=O)[C@H](C)NC(=O)CSC[C@H](C(=O)N2CCN(CC(=O)O)CC2)NC(=O)[C@H](Cc2ccccc2)N(C)C(=O)[C@H](C)N(C)C1=O [Myostatin_99_v256] ({CH2CO}-A[dE][X4]Y[NMeCha]I[dP]K([CO-Piperazinyl(4-CH2COOH)])[Phe(4-COOH)]R[Cha][X1][NMeA][NMeF][dC]-{Piperazinyl(4-CH2COOH)}; thioether N-15)
inhibition at 0.03 µM (Myostatin; HepG2, read-out: Myostatin Inhibition 30nM): 57%
inhibition at 0.1 µM (Myostatin; HepG2, read-out: Myostatin Inhibition 100nM): 88%
inhibition at 0.03 µM (GDF-11; HepG2, read-out: GDF11 Inhibition 30nM, peptide 30nM, GDF-11 10 ng/mL): 0%
inhibition at 0.1 µM (GDF-11; HepG2, read-out: GDF11 Inhibition 100nM, peptide 100nM, GDF-11 10 ng/mL): 4%

CCCCCCC[C@@H]1NC(=O)[C@H](Cc2ccccc2)N(C)C(=O)[C@H](CCCNC(=N)N)NC(=O)[C@H](Cc2ccc(C(=O)O)cc2)NC(=O)[C@H](CCCCNC(=O)N2CCN(CC(=O)O)CC2)NC(=O)CN(CC)C(=O)[C@H]([C@@H](C)CC)NC(=O)[C@H](CC2CCCCC2)N(C)C(=O)[C@H](Cc2ccc(O)cc2)NC(=O)[C@H](Cc2c[nH]c3ccccc23)NC(=O)[C@@H](CCC(=O)O)NC(=O)[C@H](C)NC(=O)CSC[C@H](C(=O)N2CCN(CC(=O)O)CC2)NC(=O)[C@H](Cc2ccccc2)N(C)C(=O)[C@H](C)N(C)C1=O [Myostatin_99_v258] ({CH2CO}-A[dE]WY[NMeCha]I[NEtG]K([CO-Piperazinyl(4-CH2COOH)])[Phe(4-COOH)]R[NMeF][X1][NMeA][NMeF][dC]-{Piperazinyl(4-CH2COOH)}; thioether N-15)
inhibition at 0.03 µM (Myostatin; [1]): 21%
inhibition at 0.1 µM (Myostatin; [2]): 61%
inhibition at 0.03 µM (GDF-11; [3]): 0%
inhibition at 0.1 µM (GDF-11; [4]): 0%

CCCCCCCCCC[C@@H]1NC(=O)[C@H](CC2CCCCC2)NC(=O)[C@H](CCCNC(=N)N)NC(=O)[C@H](Cc2ccc(C(=O)O)cc2)NC(=O)[C@H](Cc2cccc(OCC(=O)O)c2)NC(=O)CN(C)C(=O)[C@H]([C@@H](C)CC)NC(=O)[C@H](Cc2ccccc2)N(C)C(=O)[C@H](Cc2ccc(O)cc2)NC(=O)[C@H](Cc2c[nH]c3ccccc23)NC(=O)[C@H](C)NC(=O)[C@H](CCCCNC(=O)N2CCN(CC(=O)O)CC2)NC(=O)CSC[C@H](C(=O)N2CCN(CC(=O)O)CC2)NC(=O)[C@H](Cc2ccccc2)N(C)C(=O)[C@H](C)N(C)C1=O [Myostatin_99_v259] ({CH2CO}-K([CO-Piperazinyl(4-CH2COOH)])AWY[NMeF]I[Sar][Phe(3-OCH2COOH)][Phe(4-COOH)]R[Cha][Gly(decyl)][NMeA][NMeF][dC]-{Piperazinyl(4-CH2COOH)}; thioether N-15)
inhibition at 0.03 µM (Myostatin; [1]): 100%
inhibition at 0.1 µM (Myostatin; [2]): 100%
inhibition at 0.03 µM (GDF-11; [3]): 0%
inhibition at 0.1 µM (GDF-11; [4]): 28%

CCCCCCCCCC[C@@H]1NC(=O)[C@H](CC2CCCCC2)NC(=O)[C@H](CCCNC(=N)N)NC(=O)[C@H](Cc2ccc(C(=O)O)cc2)NC(=O)[C@H](Cc2cccc(OCC(=O)O)c2)NC(=O)CN(C)C(=O)[C@H]([C@@H](C)CC)NC(=O)[C@H](Cc2ccccc2)N(C)C(=O)[C@H](Cc2ccc(O)cc2)NC(=O)[C@H](Cc2c[nH]c3ccccc23)NC(=O)[C@@H](CCCCNC(=O)N2CCN(CC(=O)O)CC2)NC(=O)[C@H](C)NC(=O)CSC[C@H](C(=O)N2CCN(CC(=O)O)CC2)NC(=O)[C@H](Cc2ccccc2)N(C)C(=O)[C@H](C)N(C)C1=O [Myostatin_99_v260] ({CH2CO}-A[dK]([CO-Piperazinyl(4-CH2COOH)])WY[NMeF]I[Sar][Phe(3-OCH2COOH)][Phe(4-COOH)]R[Cha][Gly(decyl)][NMeA][NMeF][dC]-{Piperazinyl(4-CH2COOH)}; thioether N-15)
inhibition at 0.03 µM (Myostatin; [1]): 100%
inhibition at 0.1 µM (Myostatin; [2]): 100%
inhibition at 0.03 µM (GDF-11; [3]): 37%
inhibition at 0.1 µM (GDF-11; [4]): 75%

Reference: patent publication EP4786487A1, “PEPTIDE” (Peptidream Inc, priority 2023, dated 2025)
